pEC50, pIC50: −log10 of the molar value.
Key:
[1] = target: PD-L1 His protein / PD-1 Fc protein (Homo sapiens (Human), UniProt Q9NZQ7); assay: HTRF Assay (PD-1/PD-L1 interaction); format: binding; conditions: PD-L1 His 6 nM, PD-1 Fc 6 nM
[2] = target: human PD-L1 (Homo sapiens (Human), UniProt Q9NZQ7); assay: T cell activation luciferase reporter cell culture system (T Cell Activation Assay); format: cell-based; conditions: luciferase reporter assay; PD-L1 aAPC/CHO-K1 cells with PD-1 effector Jurkat T cells
human PD-L1, sequence (Q9NZQ7 19-290): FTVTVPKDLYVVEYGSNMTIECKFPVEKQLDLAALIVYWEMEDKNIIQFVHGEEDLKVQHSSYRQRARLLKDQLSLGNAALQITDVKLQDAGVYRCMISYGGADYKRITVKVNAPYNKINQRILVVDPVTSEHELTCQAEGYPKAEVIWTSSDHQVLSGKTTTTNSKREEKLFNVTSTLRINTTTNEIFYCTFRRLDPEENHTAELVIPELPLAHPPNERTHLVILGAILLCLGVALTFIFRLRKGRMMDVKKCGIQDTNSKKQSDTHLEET

PD-L1 His protein / PD-1 Fc protein, sequence (Q9NZQ7 19-238): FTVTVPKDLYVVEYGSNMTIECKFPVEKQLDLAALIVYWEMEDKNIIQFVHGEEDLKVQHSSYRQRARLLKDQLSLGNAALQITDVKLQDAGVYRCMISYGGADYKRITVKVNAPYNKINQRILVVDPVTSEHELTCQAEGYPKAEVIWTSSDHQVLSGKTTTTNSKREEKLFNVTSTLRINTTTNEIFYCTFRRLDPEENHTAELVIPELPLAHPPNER

Compound | pIC50 [1] | pEC50 [2]
CNCc1ccc(-c2nccc(-c3cccc(-c4ccc(CNC)c(OC)n4)c3Cl)c2Cl)cc1OC [Compound 136, 1-(6-(2-chloro-3-(3-chloro-2-(3-methoxy-4-((methylamino)methyl)phenyl)pyridin-4-yl)phenyl)-2methoxypyridin-3-yl)-N-methylmethanamine] | 9.15 | 7.79
COc1nc(-c2cccc(-c3ccnc(-c4ccc5c6c(n(C)c5c4)CCNC6)c3Cl)c2Cl)ccc1CNC[C@@H]1CCC(=O)N1 [Compound 141, (S)-5-((((6-(2-chloro-3-(3-chloro-2-(5-methyl-2,3,4,5-tetrahydro-1H-pyrido[4,3-b]indol-7-yl)pyridin-4-yl)phenyl)-2-methoxypyridin-3-yl)methyl)amino)methyl)pyrrolidin-2-one] | 9.08 | ≤ 5.00
COc1nc(-c2cccc(-c3ccnc(-c4ccc5c(c4)CN(CCNC[C@@H]4CCC(=O)N4)C5=O)c3Cl)c2Cl)ccc1CNC[C@H](C)O [Compound 142, 5-(3-chloro-4-(2-chloro-3-(5-((((S)-2-hydroxypropyl)amino)methyl)-6-methoxypyridin-2-yl)phenyl)pyridin-2-yl)-2-(2-((((S)-5-oxopyrrolidin-2-yl)methyl)amino)ethyl)isoindolin-1-one] | 8.18 | 5.47
COc1nc(-c2cccc(-c3ccnc(-c4ccc5c(c4)CN(CCNC[C@@H]4CCC(=O)N4)C5=O)c3Cl)c2Cl)ccc1CNC1CCN(C(C)=O)CC1 [Compound 143, (S)-5-(4-(3-(5-(((1-acetylpiperidin-4-yl)amino)methyl)-6-methoxypyridin-2-yl)-2-chlorophenyl)-3-chloropyridin-2-yl)-2-(2-(((5-oxopyrrolidin-2-yl)methyl)amino)ethyl)isoindolin-1-one] | 8.40 | 5.26
COc1nc(-c2cccc(-c3ccnc(-c4ccc5c(c4)CN(CCNC[C@@H]4CCC(=O)N4)C5=O)c3Cl)c2Cl)ccc1CN1CC2(C1)CN(C(C)=O)C2 [Compound 144, (S)-5-(4-(3-(5-((6-acetyl-2,6-diazaspiro[3.3]heptan-2-yl)methyl)-6-methoxypyridin-2-yl)-2-chlorophenyl)-3-chloropyridin-2-yl)-2-(2-(((5-oxopyrrolidin-2-yl)methyl)amino)ethyl)isoindolin-1-one] | 8.57 | ≤ 5.00
COc1cc(-c2nccc(-c3cccc(-c4ccc(CNC[C@@H]5CCC(=O)N5)c(OC)n4)c3Cl)c2Cl)cc(F)c1CN1CC2(CNC(=O)C2)C1 [Compound 145, (S)-2-(4-(3-chloro-4-(2-chloro-3-(6-methoxy-5-((((5-oxopyrrolidin-2-yl)methyl)amino)methyl)pyridin-2-yl)phenyl)pyridin-2-yl)-2-fluoro-6-methoxybenzyl)-2,6-diazaspiro[3.4]octan-7-one] | 8.69 | 7.75
COc1cc(-c2nccc(-c3cccc(-c4ccc(CNC[C@@H]5CCC(=O)N5)c(OC)n4)c3Cl)c2Cl)cc(F)c1CN1CC2(CC(O)C2)C1 [Compound 146, (S)-5-((((6-(2-chloro-3-(3-chloro-2-(3-fluoro-4-((6-hydroxy-2-azaspiro[3.3]heptan-2-yl)methyl)-5-methoxyphenyl)pyridin-4-yl)phenyl)-2-methoxypyridin-3-yl)methyl)amino)methyl)pyrrolidin-2-one] | 9.11 | 7.21
COc1cc(-c2nccc(-c3cccc(-c4ccc(CNC[C@@H]5CCC(=O)N5)c(OC)n4)c3Cl)c2Cl)cc(F)c1CNCCCF [Compound 147, (S)-5-((((6-(2-chloro-3-(3-chloro-2-(3-fluoro-4-(((3-fluoropropyl)amino)methyl)-5-methoxyphenyl)pyridin-4-yl)phenyl)-2-methoxypyridin-3-yl)methyl)amino)methyl)pyrrolidin-2-one] | 8.71 | 7.37
COc1cc(-c2nccc(-c3cccc(-c4ccc(CNC[C@@H]5CCC(=O)N5)c(OC)n4)c3Cl)c2Cl)cc(F)c1CNC1CCN(C(C)=O)CC1 [Compound 148, (S)-5-((((6-(3-(2-(4-(((1-acetylpiperidin-4-yl)amino)methyl)-3-fluoro-5-methoxyphenyl)-3-chloropyridin-4-yl)-2-chlorophenyl)-2-methoxypyridin-3-yl)methyl)amino)methyl)pyrrolidin-2-one] | 8.95 | 7.71
COC(=O)C1(NCc2cc(C(F)(F)F)c(N[C@H]3CCc4c(-c5nccc(-c6ccc(CNC[C@@H]7CCC(=O)N7)c(OC)n6)c5Cl)cccc43)nc2OC)CC1 [Compound 149, methyl 1-(((6-(((S)-4-(3′-chloro-6-methoxy-5-(((((S)-5-oxopyrrolidin-2-yl)methyl)amino)methyl)-[2,4′-bipyridin]-2′-yl)-2,3-dihydro-1H-inden-1-yl)amino)-2-methoxy-5-(trifluoromethyl)pyridin-3-yl)methyl)amino)cyclopropane-1-carboxy late] | 7.90 | ≤ 5.00
COc1nc(-c2cccc(-c3ccnc(-c4ccc5nc([C@H]6N[C@@H]7CC[C@H]6C7)[nH]c5c4)c3Cl)c2Cl)ccc1CNC[C@@H]1CCC(=O)N1 [Compound 152, (S)-5-((((6-(3-(2-(2-((1R,3S,4S)-2-azabicyclo[2.2.1]heptan-3-yl)-1H-benzo[d]imidazol-6-yl)-3-chloropyridin-4-yl)-2-chlorophenyl)-2-methoxypyridin-3-yl)methyl)amino)methyl)pyrrolidin-2-one] | 8.59 | ≤ 5.00
COc1cc(CNC[C@@H]2CCC(=O)N2)cc(-c2nccc(-c3cccc(-c4ccc(CNC[C@@H]5CCC(=O)N5)c(OC)n4)c3Cl)c2Cl)c1 [Compound 153, (S)-5-((((6-(2-chloro-3-(3-chloro-2-(3-methoxy-5-(((((S)-5-oxopyrrolidin-2-yl)methyl)amino)methyl)phenyl)pyridin-4-yl)phenyl)-2-methoxypyridin-3-yl)methyl)amino)methyl)pyrrolidin-2-one] | 8.29 | 6.11
COc1cc(CNC2CCN(C(C)=O)CC2)cc(-c2nccc(-c3cccc(-c4ccc(CNC5CCN(C(C)=O)CC5)c(OC)n4)c3Cl)c2Cl)c1 [Compound 154, 1-(4-(((6-(3-(2-(3-(((1-acetylpiperidin-4-yl)amino)methyl)-5-methoxyphenyl)-3-chloropyridin-4-yl)-2-chlorophenyl)-2-methoxypyridin-3-yl)methyl)amino)piperidin-1-yl)ethan-1-one] | 8.06 | ≤ 5.00
CNCc1cc(OC)cc(-c2nccc(-c3cccc(-c4ccc(CNC)c(OC)n4)c3Cl)c2Cl)c1 [Compound 155, 1-(6-(2-chloro-3-(3-chloro-2-(3-methoxy-5-((methylamino)methyl)phenyl)pyridin-4-yl)phenyl)-2-methoxypyridin-3-yl)-N-methylmethanamine] | 8.17 | ≤ 5.00
COc1cc(CNCCO)cc(-c2nccc(-c3cccc(-c4ccc(CNCCO)c(OC)n4)c3Cl)c2Cl)c1 [Compound 156, 2-(((6-(2-chloro-3-(3-chloro-2-(3-(((2-hydroxyethyl)amino)methyl)-5-methoxyphenyl)pyridin-4-yl)phenyl)-2-methoxypyridin-3-yl)methyl)amino)ethan-1-ol] | 8.93 | ≤ 5.00
COc1cc(CNC[C@H](C)O)cc(-c2nccc(-c3cccc(-c4ccc(CNC[C@H](C)O)c(OC)n4)c3Cl)c2Cl)c1 [Compound 157, (S)-1-(((6-(2-chloro-3-(3-chloro-2-(3-((((S)-2-hydroxypropyl)amino)methyl)-5-methoxyphenyl)pyridin-4-yl)phenyl)-2-methoxypyridin-3-yl)methyl)amino)propan-2-ol] | 8.61 | ≤ 5.00
COc1nc(-c2cccc(-c3ccnc(-c4ccc5c6c(n(C)c5c4)CCN(CCO)C6)c3Cl)c2Cl)ccc1CNC[C@@H]1CCC(=O)N1 [Compound 158, (S)-5-((((6-(2-chloro-3-(3-chloro-2-(2-(2-hydroxyethyl)-5-methyl-2,3,4,5-tetrahydro-1H-pyrido[4,3-b]indol-7-yl)pyridine-4-yl)phenyl)-2-methoxypyridin-3-yl)methyl)amino)methyl)pyridine1330ne-2-one] | 9.19 | ≤ 5.00
CNCc1ccc(-c2cccc(-c3ccnc(-c4ccc5c(c4)CNC5)c3Cl)c2Cl)nc1OC [Compound 159, 1-(6-(2-chloro-3-(3-chloro-2-(isoindolin-5-yl)pyridine-4-yl)phenyl)-2-methoxypyridin-3-yl)-N-methylmethanamine] | 8.87 | ≤ 5.00
COc1nc(-c2cccc(-c3ccnc(-c4ccc5c(c4)CNC5)c3Cl)c2Cl)ccc1CNCCO [Compound 160, 2-(((6-(2-chloro-3-(3-chloro-2-(isoindolin-5-yl)pyridine-4-yl)phenyl)-2-methoxypyridin-3-yl)methyl)amino)ethan-1-ol] | 9.06 | 6.83
COc1nc(-c2cccc(-c3ccnc(-c4ccc5c(c4)CNC5)c3Cl)c2Cl)ccc1CNC[C@H](C)O [Compound 161, (S)-1-(((6-(2-chloro-3-(3-chloro-2-(isoindolin-5-yl)pyridine-4-yl)phenyl)-2-methoxypyridin-3-yl)methyl)amino)propan-2-ol] | 9.14 | 6.41
COc1nc(-c2cccc(-c3ccnc(-c4ccc5c(c4)CNC5)c3Cl)c2Cl)ccc1CNC1CCN(C(C)=O)CC1 [Compound 162, 1-(4-(((6-(2-chloro-3-(3-chloro-2-(isoindolin-5-yl)pyridine-4-yl)phenyl)-2-methoxypyridin-3-yl)methyl)amino)piperidin-1-yl)ethan-1-one] | 9.11 | 5.29
COc1nc(-c2cccc(-c3ccnc(-c4ccc5c(c4)CNC5)c3Cl)c2Cl)ccc1CN(C)C1CCN(C(C)=O)CC1 [Compound 163, 1-(4-(((6-(2-chloro-3-(3-chloro-2-(isoindolin-5-yl)pyridine-4-yl)phenyl)-2-methoxypyridin-3-yl)methyl)(methyl)amino)piperidin-1-yl)ethan-1-one] | 8.48 | ≤ 5.00

Source: US20240246964A1 (Arbutus Biopharma Corporation, priority 2021, published 2024)
